Results: publication PMC10307939 (Pharmacology Research & Perspectives, 2023)
Entries after “also recorded” stand apart in the source; their conditions may differ. Where a name gives a salt, the structure may show the parent alone.

Tests used:
[1] = molecular target: T1, mouse kappa opioid receptor (Mus musculus, UniProt P33534); assay: Radioligand competition binding, mKOR‐CHO membranes; settings: for MOR/KOR (fold selectivity for MOR over KOR): K i at KOR divided by K i at MOR
[2] = molecular target: T2, human delta‐opioid receptor (Homo sapiens, UniProt P41143); assay: Radioligand competition binding, hDOR‐CHO membranes; settings: for MOR/DOR (fold selectivity for MOR over DOR): K i at DOR divided by K i at MOR
[3] = molecular target: T1, mouse kappa opioid receptor; assay: biochemical; assay type: biochemical; settings: for Emax: read-out: KOR E max
[4] = molecular target: T2, human delta‐opioid receptor; assay: Ligand‐stimulated [35S]GTPγS binding, hDOR‐CHO membranes; assay type: biochemical; settings: for Emax: read-out: DOR E max
male and female ICR mice [5] = assay: Horizontal locomotor activity, 60‐min session; assay type: in vivo, mouse; settings: for Emax / ED50: Mus musculus, sc; for Emax: 1 h, read-out: E max (95%CL), % Methadone E max; for ED50: read-out: ED50 (95% CL); for Effect on locomotor activity: SC, drug alone
male and female ICR mice [6] = assay: Naltrexone antagonism of test‐drug locomotor activation; assay type: in vivo, mouse; settings: 1.0 mg/kg naltrexone SC 10 min before test drug
mouse mu‐opioid receptor [7] = molecular target: T3, mouse mu‐opioid receptor (Mus musculus, UniProt P42866); assay: Radioligand competition binding, mMOR‐CHO membranes; settings: for Ki: MOR K i, [3H]naloxone, mMOR‐CHO membranes, mean ± SEM (n = 3–6)
mouse mu‐opioid receptor [8] = molecular target: T3, mouse mu‐opioid receptor; assay: Ligand‐stimulated [35S]GTPγS binding, mMOR‐CHO membranes; assay type: biochemical; settings: for Emax: read-out: MOR E max
male and female ICR mice [9] = assay: Test‐drug antagonism of morphine locomotor activation; assay type: in vivo, mouse; settings: test drug SC 10 min before 32 mg/kg SC morphine

SMILES | Ki [1] [nM] | MOR/KOR (fold selectivity for MOR over KOR) [1] [fold] | Ki [2] [nM] | MOR/DOR (fold selectivity for MOR over DOR) [2] [fold] | KOR E max [3] | EC50 [4] [nM] | Emax [4] [%] | Emax (male and female ICR mice [5]) [%] | ED50 (male and female ICR mice [5]) [mg/kg] | Effect of naltrexone pretreatment on locomotor‐activating dose of test drug (male and female ICR mice [6]) | Ki (mouse mu‐opioid receptor [7]) [nM] | EC50 (mouse mu‐opioid receptor [8]) [nM] | Emax (mouse mu‐opioid receptor [8]) [%] | also measured
C/C=C\[C@@H]1[C@H]2CCC[C@]1(c1cccc(O)c1)CCN2CCc1ccccc1 [DC‐1‐128.1, 3‐((1R,5S,9S)‐2‐phenethyl‐9‐((Z)‐prop‐1‐en‐1‐yl)‐2‐azabicyclo [3.3.1]nonan‐5‐yl)phenol] | 63.3 ± 7.43 | 112.6 | 318 ± 47 | 565.2 | no KOR activation; also recorded: No stim | 503 ± 118 | 31.4 ± 2.23 | 80.1 | 0.19 | significantly attenuated | – | – | – | Fold difference in [35S]GTPγS potency, MOR versus DOR ([4]; higher potency at MOR than at DOR): more than 60 fold
CN1c2ccccc2C(NCCCCCCC(=O)O)c2ccc(Cl)cc2S1(=O)=O (centres unmarked) [Tianeptine, reference compound] | – | – | 2830 ± 416 | – | No stim | – | – | – | – | significantly attenuated | 78.2 ± 9.93 | 6440 ± 622 | 110 ± 3.6 | –
C/C=C\[C@H]1[C@H]2CCC[C@]1(c1cccc(O)c1)CCN2CCc1ccccc1 [DC‐1‐90.2, 3‐((1R,5S,9R)‐2‐phenethyl‐9‐((Z)‐prop‐1‐en‐1‐yl)‐2‐azabicyclo[3.3.1]nonan‐5‐yl)phenol] | 34.5 ± 0.77 | 18.8 | 430 ± 41.7 | 235.0 | No stim | 253 ± 133 | -6.97 ± 0.46 | – | – | – | – | – | – | –
C=C[C@@H]1[C@H]2CCC[C@]1(c1cccc(O)c1)CCN2CCc1ccccc1 [DC‐1‐76.1, 3‐((1R,5S,9S)‐2‐phenethyl‐9‐vinyl‐2‐azabicyclo[3.3.1]nonan‐5‐yl)phenol] | 52.9 ± 1.11 | 27.7 | 3390 ± 268 | 1773.3 | No stim | 1160 ± 214 | -0.7 ± 2.12 | 34.3 | 0.72 | significantly attenuated | – | – | – | –
OC/C=C/[C@H]1[C@@H]2CCC[C@@]1(c1cccc(O)c1)CCN2CCc1ccccc1 [EG‐1‐230, 3‐((1S,5R,9R)‐9‐((E)‐3‐hydroxyprop‐1‐en‐1‐yl)‐2‐phenethyl‐2‐azabicyclo[3.3.1]nonan‐5‐yl)phenol] | 45.9 ± 7.08 | 10.9 | 1010 ± 147 | 238.5 | – | 517 ± 366 | -10.6 ± 3.58 | 2.2 | – | – | 4.22 ± 0.177 | 24.1 ± 12 | 0.67 ± 0.79 | EC50 [3]: 20.7 ± 5.6 nM; Emax [3]: -3.97 ± 0.65%; Effect on locomotor activity (male and female ICR mice [5]): inactive when administered alone; Effect of test‐drug pretreatment on locomotor‐activating effects of morphine (male and female ICR mice [9]): significantly attenuated
C=C[C@H]1[C@H]2CCC[C@]1(c1cccc(O)c1)CCN2CCc1ccccc1 [DC‐1‐76.2, 3‐((1R,5S,9R)‐2‐phenethyl‐9‐vinyl‐2‐azabicyclo[3.3.1]nonan‐5‐yl)phenol] | 44 ± 2.98 | 88.5 | 347 ± 45.6 | 698.5 | No stim | 160 ± 142 | -6.34 ± 0.78 | 87.6 | 0.47 | significantly attenuated | – | – | – | –
CCC(=O)C(CC(C)N(C)C)(c1ccccc1)c1ccccc1 (racemic) [Methadone, (±) Methadone HCl, reference compound] | – | – | – | – | – | – | – | – | – | – | – | – | – | Total locomotor counts (male and female ICR mice [5]; 32 mg/kg SC, 60‐min session): 7500.1 counts; Mean maximum increase in locomotor counts (male and female ICR mice [5]; 32 mg/kg vs. saline vehicle): 5149.8 counts; Effect on locomotor activity (male and female ICR mice [5]): dose‐dependent increase in locomotor activity
CCC[C@H]1[C@@H]2CCC[C@@]1(c1cccc(O)c1)CCN2CCc1ccccc1 [EG‐1‐203, 3‐((1S,5R,9R)‐2‐phenethyl‐9‐propyl‐2‐azabicyclo[3.3.1]nonan‐5‐yl)phenol] | 22.3 ± 4.66 | 29.3 | 66.5 ± 7.7 | 87.4 | – | 37 ± 17.7 | -11.6 ± 3.08 | 13 | 5.42 | – | 0.761 ± 0.031 | 24.2 ± 13.8 | 4.79 ± 0.6 | EC50 [3]: 125 ± 88.7 nM; Emax [3]: -3.49 ± 0.67%; Effect of test‐drug pretreatment on locomotor‐activating effects of morphine (male and female ICR mice [9]): significantly attenuated
OCC[C@H]1[C@@H]2CCC[C@@]1(c1cccc(O)c1)CCN2CCc1ccccc1 [JL‐2‐39, 3‐((1S,5R,9R)‐9‐(2‐hydroxyethyl)‐2‐phenethyl‐2‐azabicyclo[3.3.1]nonan‐5‐yl)phenol] | 17.1 ± 2.22 | 43.4 | 473 ± 41.2 | 1199.2 | No stim | – | – | 87.1 | 2.85 | significantly attenuated | 0.394 ± 0.035 | 7.09 ± 3.7 | 13 ± 1.48 | Fold higher MOR affinity than DC‐1‐76.1 (mouse mu‐opioid receptor [7]; relative to DC‐1‐76.1): ~ 5 fold; Fold more potent than DC‐1‐76.1 in vitro ([35S]GTPɣS binding, MOR CHO cells) (mouse mu‐opioid receptor [8]; relative to DC‐1‐76.1): ~ 5 fold; Fold less potent than DC‐1‐76.1 in vivo (locomotor activity) (male and female ICR mice [5]; relative to DC‐1‐76.1): ~ 4 fold
